Assay [1] deals with T1, human recombinant 5-HT2C receptor (Homo sapiens, UniProt P28335).
T1 sequence (P28335 33-458): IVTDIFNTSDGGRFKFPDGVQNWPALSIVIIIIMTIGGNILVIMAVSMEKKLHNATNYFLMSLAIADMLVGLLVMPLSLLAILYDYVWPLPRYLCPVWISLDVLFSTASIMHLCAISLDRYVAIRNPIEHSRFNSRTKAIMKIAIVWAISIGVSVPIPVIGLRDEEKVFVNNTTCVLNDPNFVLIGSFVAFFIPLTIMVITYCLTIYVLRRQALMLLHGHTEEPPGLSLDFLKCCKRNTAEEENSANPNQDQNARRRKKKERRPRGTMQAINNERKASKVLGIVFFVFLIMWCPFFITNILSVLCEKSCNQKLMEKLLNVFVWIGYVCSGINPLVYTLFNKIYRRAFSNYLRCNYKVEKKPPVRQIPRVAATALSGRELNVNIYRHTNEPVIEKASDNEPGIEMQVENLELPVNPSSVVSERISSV
Briefly: 5-HT2C receptor radioligand binding ([3H]mesulergine, CHO membranes).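 Also: competitive displacement of the tritiated ligand, using membranes from CHO cells stably transfected with the human receptor.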

In assay [2] the target is human recombinant 5-HT2B receptor (Homo sapiens, UniProt P41595). Briefly: 5-HT2B receptor radioligand binding ([3H]mesulergine, CHO membranes).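 Also: competitive displacement binding on membranes of CHO cells stably expressing the receptor.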
Chain of human recombinant 5-HT2B receptor (P41595 whole entry): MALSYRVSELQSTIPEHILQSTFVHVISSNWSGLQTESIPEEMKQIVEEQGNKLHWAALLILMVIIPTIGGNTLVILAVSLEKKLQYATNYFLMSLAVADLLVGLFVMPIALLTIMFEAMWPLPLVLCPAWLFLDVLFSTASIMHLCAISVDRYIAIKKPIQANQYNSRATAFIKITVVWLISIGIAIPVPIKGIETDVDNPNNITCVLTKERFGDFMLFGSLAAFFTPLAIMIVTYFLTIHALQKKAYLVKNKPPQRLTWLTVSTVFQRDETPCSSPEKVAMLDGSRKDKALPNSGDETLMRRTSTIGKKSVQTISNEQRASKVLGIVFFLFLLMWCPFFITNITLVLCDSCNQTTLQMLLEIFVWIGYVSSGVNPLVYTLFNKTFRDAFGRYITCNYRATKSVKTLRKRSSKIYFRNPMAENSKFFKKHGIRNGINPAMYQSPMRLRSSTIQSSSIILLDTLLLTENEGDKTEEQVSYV
Experimental: Affinity for 5HT2 Receptor Binding Sites
Receptor binding was performed using the human recombinant 5-HT2A (GB: X57830), 5-HT2B (GB: Z36748) and 5-HT2c (GB: M81778) receptors. The affinity of the compounds for the 3 different human 5-HT2 receptor subtypes was evaluated by competitive radioligand binding assays using [^3H]ketanserin (h5-HT2A) or [^3H]mesulergine (h5-HT2B and h5-HT2c). The assays were performed on membranes prepared from NIH3T3 stably transfected with h5-HT2A or CHO stably transfected with h5-HT2B and h5-HT2C.
In assay [3] the target is 5-HT2A receptor (UniProt P28223). Briefly: 5-HT2A receptor radioligand binding ([3H]ketanserin).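 Also: competitive displacement binding on membranes, either from rat cerebral cortex or from NIH3T3 cells stably expressing human 5-HT2A.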 The settings on record: read-out: Ki 5-HT2A, table does not say whether rat cortex or human recombinant (NIH3T3) receptor.
Experimental: The affinity of the compounds for the rat 5-HT2A receptor was evaluated by competitive radioligand binding assay using [^3H]ketanserine as the radioligand. The assay was performed on membranes from rat cortex as previously described (Schotte, A. et al., Psychopharmacology (1996) 124: 57-73). Briefly, brain tissue (rat cortex) was homogenized in 20 volumes per wet weight tissue of Tris-HCl buffer (50 mM, pH 7.4). The total membrane fraction was collected by centrifugation and washed by subsequent centrifugation runs (25 min at 25,000 g at 4° C.). Membranes were re-suspended in Tris-HCl buffer (50 mM, pH 7.4) containing 1 nM [^3H]ketanserin. Non-specific binding was estimated in the presence of 10 μM risperidone.
Assay [4] addresses T2, rat 5-HT7a receptor (Rattus norvegicus, UniProt P32305).
T2 construct: expressed in transfected cells
Briefly: 5-HT7 receptor radioligand binding ([3H]5-CT, membranes of transfected HEK-293 cells). The settings on record: rat 5-HT7a in HEK-293 membranes, 1 nM [3H]5-CT.

Where [5] appears, read: read-out: Ki 5-HT2C, h5-HT2C in CHO membranes, [3H]mesulergine.

Read-outs that look alike come from different tables or passages of the source.

T2 sequence (P32305 whole entry): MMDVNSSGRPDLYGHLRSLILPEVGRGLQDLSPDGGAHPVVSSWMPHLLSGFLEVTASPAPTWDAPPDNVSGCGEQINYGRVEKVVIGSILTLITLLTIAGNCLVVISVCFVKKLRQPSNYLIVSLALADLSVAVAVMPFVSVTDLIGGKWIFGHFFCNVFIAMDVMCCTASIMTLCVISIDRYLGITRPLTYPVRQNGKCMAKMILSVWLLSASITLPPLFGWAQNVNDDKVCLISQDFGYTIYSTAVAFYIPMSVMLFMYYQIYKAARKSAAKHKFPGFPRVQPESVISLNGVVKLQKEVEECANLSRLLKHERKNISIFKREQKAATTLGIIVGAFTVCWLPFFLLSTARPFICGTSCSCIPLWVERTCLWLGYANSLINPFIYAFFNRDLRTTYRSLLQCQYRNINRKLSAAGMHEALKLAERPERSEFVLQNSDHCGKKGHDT

As a reminder, the Ki is a measure of affinity in units of concentration, obtained from inhibition or displacement. As for `FC(F)(F)c1ccc(-c2c3c(nn2C2CCCC2)CCNCC3)cc1` [Example 218, 2-Cyclopentyl-3-(4-trifluoromethyl-phenyl)-2,4,5,6,7,8-hexahydro-1,2,6-triaza-azulene], the Ki came to 15 nM in assay [1], 1.8 nM in assay [2], 1.7 nM in assay [3] and 75 nM in assay [4].

With `COc1ccc(-c2c3c(nn2C2CCCC2)CCNCC3)cc1` [Example 220, 2-Cyclopentyl-3-(4-methoxy-phenyl)-2,4,5,6,7,8-hexahydro-1,2,6-triaza-azulene], the Ki in assay [1] is 6.8 nM; in assay [2], 0.55 nM; in assay [3], 1.3 nM; in assay [4] it was 55 nM.

With `c1cc(-c2c3c(nn2C2CCCC2)CCNCC3)co1` [Example 232, 2-Cyclopentyl-3-furan-3-yl-2,4,5,6,7,8-hexahydro-1,2,6-triaza-azulene], the Ki in assay [1] turned out to be 66 nM; in assay [2], 0.5 nM; in assay [3] it was 25 nM; in assay [4], 20 nM.

As to `c1csc(-c2c3c(nn2C2CCCC2)CCNCC3)c1` [Example 233, 2-Cyclopentyl-3-thiophen-2-yl-2,4,5,6,7,8-hexahydro-1,2,6-triaza-azulene], the Ki was 16 nM in assay [1], 25 nM in assay [2], 4 nM in assay [3] and 15 nM in assay [4].

Take `Fc1ccc(-c2c3c(nn2C2CCCC2)CCNCC3)cc1F` [Example 236, 2-Cyclopentyl-3-(3,4-difluoro-phenyl)-2,4,5,6,7,8-hexahydro-1,2,6-triaza-azulene]: the Ki was found to be 32 nM in assay [1], 4.5 nM in assay [2], 7 nM in assay [3] and 950 nM in assay [4].

Turning to `Clc1ccc(-c2c3c(nn2C2CCC2)CCNCC3)cc1` [Example 238, 3-(4-Chloro-phenyl)-2-cyclobutyl-2,4,5,6,7,8-hexahydro-1,2,6-triaza-azulene], the Ki in assay [1] was found to be 13 nM; in assay [2], 0.5 nM; in assay [3], 1 nM; in assay [4], 40 nM.

For `Fc1cc(-c2c3c(nn2C2CCCC2)CCNCC3)ccc1Cl` [Example 241, 3-(4-Chloro-3-fluoro-phenyl)-2-cyclopentyl-2,4,5,6,7,8-hexahydro-1,2,6-triaza-azulene], the Ki in assay [1] was 38 nM; in assay [2], 9.5 nM; in assay [3], 9 nM; in assay [4], 310 nM.

Turning to `COc1ccc(-c2c3c(nn2C(C)C)CCNCC3)cc1` [Example 242, 2-Isopropyl-3-(4-methoxy-phenyl)-2,4,5,6,7,8-hexahydro-1,2,6-triaza-azulene], the Ki is 45 nM in assay [1] (setting [5]), 1.3 nM in assay [2], 8 nM in assay [3] and 21 nM in assay [4].

`c1ccc(-c2c3c(nn2C2CCC2)CCNCC3)cc1` [Example 276, 2-Cyclobutyl-3-phenyl-2,4,5,6,7,8-hexahydro-1,2,6-triaza-azulene]: the Ki in assay [1] (setting [5]) was 90 nM; in assay [2] it was 2.5 nM; in assay [3] it was 3 nM; in assay [4], 90 nM.

For `Fc1ccc(-c2c3c(nn2C2CCC2)CCNCC3)cc1` [Example 277, 2-Cyclobutyl-3-(4-fluoro-phenyl)-2,4,5,6,7,8-hexahydro-1,2,6-triaza-azulene], the Ki in assay [1] was 40 nM; in assay [2], 3 nM; in assay [3] it was 0.9 nM; in assay [4], 150 nM.

In the case of `Cc1ccc(-c2c3c(nn2C2CCC2)CCNCC3)cc1` [Example 278, 2-Cyclobutyl-3-p-tolyl-2,4,5,6,7,8-hexahydro-1,2,6-triaza-azulene], the Ki in assay [1] is 10 nM; in assay [2], 0.2 nM; in assay [3], 0.1 nM; in assay [4], 35 nM.

For the compound `FC(F)(F)c1ccc(-c2c3c(nn2C2CCC2)CCNCC3)cc1` [Example 279, 2-Cyclobutyl-3-(4-trifluoromethyl-phenyl)-2,4,5,6,7,8-hexahydro-1,2,6-triaza-azulene], the Ki in assay [1] turned out to be 45 nM; in assay [2], 1 nM; in assay [3], 0.8 nM; in assay [4], 80 nM.

Consider `N#Cc1ccc(-c2c3c(nn2C2CCC2)CCNCC3)cc1` [Example 280, 4-(2-Cyclobutyl-2,4,5,6,7,8-hexahydro-1,2,6-triaza-azulen-3-yl)-benzonitrile], for which the Ki in assay [1] was 120 nM; in assay [2], 6 nM; in assay [3] it was 1.5 nM; in assay [4], 3300 nM.

Regarding `Fc1ccc(-c2c3c(nn2C2CC2)CCNCC3)cc1` [Example 282, 2-Cyclopropyl-3-(4-fluoro-phenyl)-2,4,5,6,7,8-hexahydro-1,2,6-triaza-azulene], the Ki in assay [1] (setting [5]) came out at 200 nM; in assay [2] (read-out: Ki 5-HT2B, h5-HT2B in CHO membranes, [3H]mesulergine), 20 nM; in assay [3], 6 nM; in assay [4], 100 nM.

`CCC(CC)n1nc2c(c1-c1ccc(F)c(C)c1)CCNCC2` [Example 283, 2-(1-Ethyl-propyl)-3-(4-fluoro-3-methyl-phenyl)-2,4,5,6,7,8-hexahydro-1,2,6-triaza-azulene]: the Ki in assay [1] came to 150 nM; in assay [2] it was 60 nM; in assay [3] it was 10 nM; in assay [4] it was 5000 nM.

`Cc1ccc(-c2c3c(nn2C2CC2)CCNCC3)cc1` [Example 284, 2-Cyclopropyl-3-p-tolyl-2,4,5,6,7,8-hexahydro-1,2,6-triaza-azulene]: the Ki in assay [1] was determined as 60 nM; in assay [2], 2 nM; in assay [3] it was 1 nM; in assay [4], 10 nM.

For `c1cc(-c2c3c(nn2C2CC2)CCNCC3)cs1` [Example 285, 2-Cyclopropyl-3-thiophen-3-yl-2,4,5,6,7,8-hexahydro-1,2,6-triaza-azulene], the Ki in assay [1] amounted to 500 nM; in assay [2], 6 nM; in assay [3], 60 nM; in assay [4], 29 nM.

Turning to `N#Cc1ccc(-c2c3c(nn2C2CC2)CCNCC3)cc1` [Example 286, 4-(2-Cyclopropyl-2,4,5,6,7,8-hexahydro-1,2,6-triaza-azulen-3-yl)-benzonitrile], the Ki turned out to be 5000 nM in assay [1], 80 nM in assay [2], 50 nM in assay [3] and 335 nM in assay [4].

As to `CCC(C)n1nc2c(c1-c1ccccc1)CCNCC2` (centres unmarked) [Example 298, 2-sec-Butyl-3-phenyl-2,4,5,6,7,8-hexahydro-1,2,6-triaza-azulene], the Ki in assay [1] was determined as 60 nM; in assay [2], 6.5 nM; in assay [3], 5 nM; in assay [4], 50 nM.

With `CCC(C)n1nc2c(c1-c1ccc(F)cc1)CCNCC2` (centres unmarked) [Example 299, 2-sec-Butyl-3-(4-fluoro-phenyl)-2,4,5,6,7,8-hexahydro-1,2,6-triaza-azulene], the Ki in assay [1] came to 26 nM; in assay [2] it was 9 nM; in assay [3], 1.7 nM; in assay [4], 35 nM.

`CCC(C)n1nc2c(c1-c1ccc(C)cc1)CCNCC2` (centres unmarked) [Example 300, 2-sec-Butyl-3-p-tolyl-2,4,5,6,7,8-hexahydro-1,2,6-triaza-azulene]: the Ki in assay [1] turned out to be 12 nM; in assay [2] it was 0.8 nM; in assay [3], 0.3 nM; in assay [4], 10 nM.

Turning to `CCC(C)n1nc2c(c1-c1ccc(C(F)(F)F)cc1)CCNCC2` (centres unmarked) [Example 301, 2-sec-Butyl-3-(4-trifluoromethyl-phenyl)-2,4,5,6,7,8-hexahydro-1,2,6-triaza-azulene], the Ki in assay [1] amounted to 100 nM; in assay [2], 3 nM; in assay [3], 1.6 nM; in assay [4], 40 nM.

Regarding `CN1CCc2nn(C3CCCC3)c(-c3ccc(F)cc3)c2CC1` [Example 302, 2-Cyclopentyl-3-(4-fluoro-phenyl)-6-methyl-2,4,5,6,7,8-hexahydro-1,2,6-triaza-azulene], the Ki in assay [1] was 21.5 nM; in assay [2], 1.3 nM; in assay [3], 0.2 nM; in assay [4] it was 100 nM.

As to `CC1CN(Cc2ccccc2)CCc2c1nn(C(C)C)c2-c1ccc(F)cc1` (centres unmarked) [Example 305, 6-Benzyl-3-(4-fluoro-phenyl)-2-isopropyl-8-methyl-2,4,5,6,7,8-hexahydro-1,2,6-triaza-azulene], the Ki in assay [1] was 2200 nM; in assay [2], 60 nM; in assay [3] it was 20 nM; in assay [4], 600 nM.

In the case of `CC1CNCCc2c1nn(C(C)C)c2-c1ccc(F)cc1` (centres unmarked) [Example 306, 3-(4-Fluoro-phenyl)-2-isopropyl-8-methyl-2,4,5,6,7,8-hexahydro-1,2,6-triaza-azulene], the Ki is 39 nM in assay [1], 22 nM in assay [2], 1 nM in assay [3] and 120 nM in assay [4].

On to `CC1Cc2nn(C3CCCC3)c(-c3ccc(F)cc3)c2CCN1` (centres unmarked) [Example 308, 2-Cyclopentyl-3-(4-fluoro-phenyl)-7-methyl-2,4,5,6,7,8-hexahydro-1,2,6-triaza-azulene], for which the Ki in assay [1] is 162 nM; in assay [2], 3 nM; in assay [3], 2 nM; in assay [4], 5200 nM.

For the origin of these results see patent publication US20110040088A1, “FUSED HETEROCYCLIC COMPOUNDS” (priority 2003, published 2011).
